Source: ChEMBL document CHEMBL3627688, “Structure-based hybridization, synthesis and biological evaluation of novel tetracyclic heterocyclic azathioxanthone analogues as potential antitumor agents” (Eur J Med Chem, 2015)
The source made the active and inactive calls. No cut-off for these calls is given here.

How the values were obtained:
DU-145 = test: Antiproliferative activity against human DU145 cells assessed as cell viability incubated for 72 hrs by MTT assay; format: functional, cell-based; settings: DU-145, 72 h
PC-3 = test: Antiproliferative activity against human PC3 cells assessed as cell viability incubated for 72 hrs by MTT assay; format: functional, cell-based; settings: PC-3, 72 h
[1] = target: DNA topoisomerase 2-alpha (Homo sapiens) (UniProt P11388); test: Inhibition of human recombinant topoisomerase 2 alpha assessed as blocking of supercoiled pHOT DNA relaxation at 50 uM incubated for 45 mins at 37 degC by ethidium bromide staining based agarose gel electrophoresis
DNA topoisomerase 2-alpha (Homo sapiens), sequence (P11388 whole entry): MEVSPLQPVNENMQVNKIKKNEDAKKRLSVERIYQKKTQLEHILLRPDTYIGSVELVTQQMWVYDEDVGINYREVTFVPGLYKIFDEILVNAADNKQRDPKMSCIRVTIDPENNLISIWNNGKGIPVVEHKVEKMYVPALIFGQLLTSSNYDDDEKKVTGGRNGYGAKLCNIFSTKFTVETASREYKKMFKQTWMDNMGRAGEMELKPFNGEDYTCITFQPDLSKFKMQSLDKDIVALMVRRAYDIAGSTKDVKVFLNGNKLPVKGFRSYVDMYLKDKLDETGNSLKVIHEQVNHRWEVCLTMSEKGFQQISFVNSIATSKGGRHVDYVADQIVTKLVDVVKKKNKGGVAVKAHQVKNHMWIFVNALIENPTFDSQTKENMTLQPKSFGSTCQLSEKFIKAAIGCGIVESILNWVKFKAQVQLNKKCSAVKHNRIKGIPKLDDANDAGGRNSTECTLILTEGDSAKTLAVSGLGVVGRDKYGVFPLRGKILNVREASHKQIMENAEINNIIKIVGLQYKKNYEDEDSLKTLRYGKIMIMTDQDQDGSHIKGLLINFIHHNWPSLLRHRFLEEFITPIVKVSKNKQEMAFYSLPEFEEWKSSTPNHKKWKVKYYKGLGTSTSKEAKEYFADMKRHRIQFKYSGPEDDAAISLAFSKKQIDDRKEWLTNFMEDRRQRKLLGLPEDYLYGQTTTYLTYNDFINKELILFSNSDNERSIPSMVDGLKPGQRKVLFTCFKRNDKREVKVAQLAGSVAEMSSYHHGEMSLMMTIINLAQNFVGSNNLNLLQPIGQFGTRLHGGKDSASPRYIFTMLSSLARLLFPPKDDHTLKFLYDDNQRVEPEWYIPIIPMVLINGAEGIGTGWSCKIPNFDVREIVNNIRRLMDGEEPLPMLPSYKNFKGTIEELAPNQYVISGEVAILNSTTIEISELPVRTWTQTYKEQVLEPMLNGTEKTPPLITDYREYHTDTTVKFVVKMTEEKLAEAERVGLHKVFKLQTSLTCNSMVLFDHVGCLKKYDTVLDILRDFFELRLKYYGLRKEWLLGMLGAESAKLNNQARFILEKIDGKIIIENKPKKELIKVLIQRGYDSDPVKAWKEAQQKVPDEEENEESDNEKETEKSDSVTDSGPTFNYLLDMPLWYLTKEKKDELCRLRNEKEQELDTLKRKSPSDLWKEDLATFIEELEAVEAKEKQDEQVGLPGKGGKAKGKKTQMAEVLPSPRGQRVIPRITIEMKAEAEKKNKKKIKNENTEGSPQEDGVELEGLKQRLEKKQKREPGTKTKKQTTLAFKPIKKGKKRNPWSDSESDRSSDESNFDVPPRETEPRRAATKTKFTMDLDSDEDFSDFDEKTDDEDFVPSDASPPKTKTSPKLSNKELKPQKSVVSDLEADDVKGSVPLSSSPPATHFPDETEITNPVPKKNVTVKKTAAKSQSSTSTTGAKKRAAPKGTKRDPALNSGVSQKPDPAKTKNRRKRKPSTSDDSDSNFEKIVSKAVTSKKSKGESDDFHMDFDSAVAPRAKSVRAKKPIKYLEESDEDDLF

[2] = target: DNA topoisomerase 1 (Homo sapiens) (UniProt P11387); test: Inhibition of human recombinant topoisomerase 1 assessed as blocking of supercoiled pHOT DNA relaxation at 50 uM incubated for 25 mins at 37 degC by ethidium bromide staining based agarose gel electrophoresis
DNA topoisomerase 1 (Homo sapiens), sequence (P11387 whole entry): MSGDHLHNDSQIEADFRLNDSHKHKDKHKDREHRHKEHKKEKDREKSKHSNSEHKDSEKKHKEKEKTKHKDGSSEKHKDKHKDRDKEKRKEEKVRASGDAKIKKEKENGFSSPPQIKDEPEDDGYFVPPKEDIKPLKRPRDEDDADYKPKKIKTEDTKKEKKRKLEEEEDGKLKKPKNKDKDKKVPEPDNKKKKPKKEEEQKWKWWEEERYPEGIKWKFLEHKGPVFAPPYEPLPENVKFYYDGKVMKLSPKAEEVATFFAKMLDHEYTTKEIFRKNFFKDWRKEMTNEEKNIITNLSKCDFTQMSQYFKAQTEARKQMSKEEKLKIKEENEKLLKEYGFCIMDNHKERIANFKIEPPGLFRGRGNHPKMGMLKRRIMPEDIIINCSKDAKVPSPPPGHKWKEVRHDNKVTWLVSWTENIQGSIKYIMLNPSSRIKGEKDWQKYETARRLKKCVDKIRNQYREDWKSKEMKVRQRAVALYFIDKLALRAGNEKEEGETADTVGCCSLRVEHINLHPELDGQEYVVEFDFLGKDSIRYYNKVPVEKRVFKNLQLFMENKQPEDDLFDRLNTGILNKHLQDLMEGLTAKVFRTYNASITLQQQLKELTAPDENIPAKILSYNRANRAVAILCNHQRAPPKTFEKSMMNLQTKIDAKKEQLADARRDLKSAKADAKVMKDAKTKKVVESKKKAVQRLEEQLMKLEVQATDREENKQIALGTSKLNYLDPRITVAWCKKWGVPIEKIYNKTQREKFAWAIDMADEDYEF

IC50 (DU-145)	IC50 (PC-3)	inhibition [1]	inhibition [2]	Compound
10.2 µM	14.2 µM			O=c1c2cc(Cl)ccc2sc2c(N3CCC(N4CCCCC4)CC3)nc3ccccc3c12
0.12 µM				COc1cccc2c1C(=O)c1c(O)c3c(c(O)c1C2=O)C[C@@](O)(C(=O)CO)C[C@@H]3O[C@H]1C[C@H](N)[C@H](O)[C@H](C)O1 [DOXORUBICIN]
> 15 µM	> 15 µM			O=c1c2cc(Cl)ccc2sc2c(N3CCC(Cc4ccccc4)CC3)nc3ccccc3c12
0.4 µM	4.33 µM	Active		COc1cc([C@@H]2c3cc4c(cc3[C@@H](O[C@@H]3O[C@@H]5CO[C@@H](C)O[C@H]5[C@H](O)[C@H]3O)[C@H]3COC(=O)[C@H]23)OCO4)cc(OC)c1O [ETOPOSIDE]
9.02 µM	6.36 µM		Active	O=c1c2cc(Cl)ccc2sc2c(N3CCC(CCCC4CCNCC4)CC3)nc3ccccc3c12
11.1 µM	9.55 µM		Active	O=c1c2cc(Cl)ccc2sc2c(N3CCC(O)CC3)nc3ccccc3c12
> 15 µM	> 15 µM			O=c1c2cc(Cl)ccc2sc2c(N3CCCC3)nc3ccccc3c12
13.4 µM	> 15 µM			O=c1c2cc(Cl)ccc2sc2c(N3CCCCC3)nc3ccccc3c12
> 15 µM	> 15 µM			O=c1c2cc(Cl)ccc2sc2c(N3CCSCC3)nc3ccccc3c12

Compound	IC50 (DU-145)	IC50 (PC-3)	inhibition [1]	inhibition [2]
CC[C@@]1(O)C(=O)OCc2c1cc1n(c2=O)Cc2cc3ccccc3nc2-1 [CAMPTOTHECIN]	0.1 µM	0.1 µM		
